Article PMC10959927, “Platinum iodido drugs show potential anti-tumor activity, affecting cancer cell metabolism and inducing ROS and senescence in gastrointestinal cancer cells” (Communications Biology, 2024)
Several values for one entry are separate records, joined by “and”; a condition that tells them apart may be missing. Equal entries are not always repeated.

Assays:
Type in all cases: cell-based, human
[1] = tested on: AGS cells; assay: Immunofluorescence of γ-H2AX and 53BP1 foci; details: for foci/cell, share of cells in class (Suma 100) / foci/cell, number of cells in class: Fig. 3B; for foci/cell, number of cells in class: cell count
Experimental: (§1) Cells (7 × 10^4) were seeded on 20 mm coverslips. […] Coverslips were incubated for 1 h with the primary antibody (Cell Signaling: H2AX Ser139 (#2595) and 53BP1 (#4937)) at room temperature, followed by a 1 h incubation with the appropriate secondary antibody. DNA was stained with DAPI. Fluorescence microscopy was performed using a NIKON Eclipse 90i. The image analysis was performed using the software program Nikon NIS-Elements and Image J.

[2] = tested on: PANC1 cells; assay: Immunofluorescence of γ-H2AX and 53BP1 foci; details: for foci/cell, share of cells in class (Suma 100) / foci/cell, number of cells in class: PANC1, Fig. 3B; for foci/cell, number of cells in class: cell count
Experimental: as §1

[3] = tested on: MKN45 cells; assay: Immunofluorescence of γ-H2AX foci; details: Fig. 3B; for foci/cell, number of cells in class: cell count
Experimental: as §1

[4] = tested on: AGS cells; assay: Ratio GSH/GSSG, colorimetric kit
In short: (§2)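 AGS and PANC1 cells were exposed to compounds for 3 and 24 h, with H2O2 as positive control. GSSG was measured separately after 2-vinylpyridine treatment to give the GSH/GSSG ratio.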

[5] = tested on: PANC1 cells; assay: Ratio GSH/GSSG, colorimetric kit
In short: as §2

[6] = tested on: AGS cells; assay: Western blotting (p-p53, p-JNK, p-p38, p-ERK, p-CHK1/2, Mcl1, BID, BAX); details: for fold change p-ERK vs Tubulin / fold change p-JNK vs Tubulin / fold change p-p38 vs Tubulin / fold change p-p53 vs Tubulin: Fig. 4A, replicate values; for fold change BID full length vs Tubulin / fold change MCL1 vs Tubulin: Fig. S3B
Experimental: (§3) Total protein extracts were obtained by adding the lysis buffer: 25 mM HEPES pH 7.5, 0.3 M NaCl, 1.5 mM MgCl2, 0.2 mM EDTA, 0.5 mM DTT, 20 mM β-glicerophosphate, 0.1 mM Na3VO4, 0.1% triton X-100; in the presence of protease inhibitors. Twenty μg of protein per sample were loaded and resolved using 8%, 10% or 15% SDS-PAGE polyacrylamide gels, and then transferred onto PVDF membranes, followed by immunodetection using appropriate antibodies, purchased from Santa Cruz Technology: Mcl-1 (sc-819), Cell Signaling Technology: BIM, BID, BAX (#9942), p-p38 (1:2000, #4631), p-p53^ser15 (#9284), p-ERK1/2 (1:2000, #9106), p-CHK1^ser345 and p-CHK2^ser19 (#9931), Promega Corporation-Spain: p-JNK (#V7932), or Sigma-Aldrich: α-tubulin (1:10000, #TP026). Unless indicated, all antibodies were diluted 1:1000. Secondary antibodies conjugated with horseradish peroxidase were purchased from BioRad, and chemiluminescence detection was performed using ECL (Santa Cruz Biotechnology).

[7] = tested on: PANC1 cells; assay: as above; details: for fold change p-ERK vs Tubulin / fold change p-JNK vs Tubulin / fold change p-p38 vs Tubulin / fold change p-p53 vs Tubulin: PANC1, Fig. 4A, replicate values
Experimental: as §3

CC(C)[NH][Pt@SP3]([I])([I])[NH]C(C)C [I5, trans-[PtI2(isopropylamine)2]]
foci/cell, share of cells in class (Suma 100) ([1]; class 16-30 foci/cell): 32.2835 | foci/cell, number of cells in class ([1]; class 16-30 foci/cell): 41 | foci/cell, share of cells in class (Suma 100) ([1]; class 31-45 foci/cell): 14.1732 | foci/cell, number of cells in class ([1]; class 31-45 foci/cell): 18 | foci/cell, share of cells in class (Suma 100) ([1]; class 46-60 foci/cell): 7.874 | foci/cell, number of cells in class ([1]; class 46-60 foci/cell): 10 | foci/cell, share of cells in class (Suma 100) ([1]; class <15 foci/cell): 37.0079 | foci/cell, number of cells in class ([1]; class <15 foci/cell): 47 | foci/cell, share of cells in class (Suma 100) ([1]; class >61 foci/cell): 8.661 | foci/cell, number of cells in class ([1]; class >61 foci/cell): 11 | foci/cell: number of cells with 16-30 foci ([1]; Fig. S4B, cell counts): 24 | foci/cell: number of cells with 31-45 foci ([1]; Fig. S4B, cell counts): 5 | foci/cell: number of cells with 46-60 foci ([1]; Fig. S4B, cell counts): 2 | foci/cell: number of cells with <15 foci ([1]; Fig. S4B, cell counts): 37 | foci/cell: number of cells with >61 foci ([1]; Fig. S4B, cell counts): 0 | foci/cell: share of cells with 16-30 foci (Suma 100) ([1]; Fig. S4B, share of N): 35.2941 | foci/cell: share of cells with 31-45 foci (Suma 100) ([1]; Fig. S4B, share of N): 7.353 | foci/cell: share of cells with 46-60 foci (Suma 100) ([1]; Fig. S4B, share of N): 2.941 | foci/cell: share of cells with <15 foci (Suma 100) ([1]; Fig. S4B, share of N): 54.4118 | foci/cell: share of cells with >61 foci (Suma 100) ([1]; Fig. S4B, share of N): 0 | foci/cell: number of cells with 16-30 foci ([2]; PANC1, Fig. S4B, cell counts): 11 | foci/cell: number of cells with 31-45 foci ([2]; PANC1, Fig. S4B, cell counts): 3 | foci/cell: number of cells with 46-60 foci ([2]; PANC1, Fig. S4B, cell counts): 1 | foci/cell: number of cells with <15 foci ([2]; PANC1, Fig. S4B, cell counts): 18 | foci/cell: number of cells with >61 foci ([2]; PANC1, Fig. S4B, cell counts): 0 | foci/cell: share of cells with 16-30 foci (Suma 100) ([2]; PANC1, Fig. S4B, share of N): 33.3333 | foci/cell: share of cells with 31-45 foci (Suma 100) ([2]; PANC1, Fig. S4B, share of N): 9.091 | foci/cell: share of cells with 46-60 foci (Suma 100) ([2]; PANC1, Fig. S4B, share of N): 3.0303 | foci/cell: share of cells with <15 foci (Suma 100) ([2]; PANC1, Fig. S4B, share of N): 54.5455 | foci/cell: share of cells with >61 foci (Suma 100) ([2]; PANC1, Fig. S4B, share of N): 0 | foci/cell, share of cells in class (Suma 100) ([2]; class 16-30 foci/cell): 26.9231 | foci/cell, number of cells in class ([2]; class 16-30 foci/cell): 7 | foci/cell, share of cells in class (Suma 100) ([2]; class 31-45 foci/cell): 26.9231 | foci/cell, number of cells in class ([2]; class 31-45 foci/cell): 7 | foci/cell, share of cells in class (Suma 100) ([2]; class 46-60 foci/cell): 15.3846 | foci/cell, number of cells in class ([2]; class 46-60 foci/cell): 4 | foci/cell, share of cells in class (Suma 100) ([2]; class <15 foci/cell): 3.846 | foci/cell, number of cells in class ([2]; class <15 foci/cell): 1 | foci/cell, share of cells in class (Suma 100) ([2]; class >61 foci/cell): 26.9231 | foci/cell, number of cells in class ([2]; class >61 foci/cell): 7 | foci/cell, share of cells in class (Suma 100) ([3]; class 16-30 foci/cell): 20 | foci/cell, number of cells in class ([3]; class 16-30 foci/cell): 5 | foci/cell, share of cells in class (Suma 100) ([3]; class 31-45 foci/cell): 24 | foci/cell, number of cells in class ([3]; class 31-45 foci/cell): 6 | foci/cell, share of cells in class (Suma 100) ([3]; class 46-60 foci/cell): 20 | foci/cell, number of cells in class ([3]; class 46-60 foci/cell): 5 | foci/cell, share of cells in class (Suma 100) ([3]; class <15 foci/cell): 16 | foci/cell, number of cells in class ([3]; class <15 foci/cell): 4 | foci/cell, share of cells in class (Suma 100) ([3]; class >61 foci/cell): 20 | foci/cell, number of cells in class ([3]; class >61 foci/cell): 5 | GSH/GSSG ([4]; AGS, 3, relative to Control = 1): 0.9172 and 0.9228 and 0.9268 | GSH/GSSG ([4]; AGS, 24, relative to Control = 1): 0.5757 and 0.62 and 0.7864 | GSH/GSSG ([5]; PANC1, 3, relative to Control = 1): 0.746 and 0.7881 and 0.8512 | GSH/GSSG ([5]; PANC1, 24, relative to Control = 1): 0.8241 and 0.8337 and 0.9592 | activation of p53 (p-p53 western blot) ([6]; IC50, 1, 3, 6 and 24 h): did not activate p53 | phosphorylation of CHK1/2 (DDR pathway, western blot) ([6]; IC50, 1, 3, 6 or 24 h): did not activate | fold change p-ERK vs Tubulin ([6]; Time 1 h): 3.337 fold change and 2.237 fold change and 6.03 fold change | fold change p-JNK vs Tubulin ([6]; Time 1 h): 3.178 fold change and 2.647 fold change and 2.394 fold change | fold change p-p38 vs Tubulin ([6]; Time 1 h): 1.6079 fold change and 2.911 fold change and 3.19 fold change | fold change p-p53 vs Tubulin ([6]; Time 1 h): 0.8674 fold change and 0.8424 fold change and 1.7105 fold change | fold change p-ERK vs Tubulin ([6]; Time 3 h): 6.263 fold change and 7.52 fold change and 5.909 fold change | fold change p-JNK vs Tubulin ([6]; Time 3 h): 3.912 fold change and 2.163 fold change and 1.799 fold change | fold change p-p38 vs Tubulin ([6]; Time 3 h): 0.8627 fold change and 3.016 fold change and 3.496 fold change | fold change p-p53 vs Tubulin ([6]; Time 3 h): 0.5433 fold change and 0.6274 fold change and 1.359 fold change | fold change p-ERK vs Tubulin ([6]; Time 6 h): 3.858 fold change and 7.71 fold change and 6.1 fold change | fold change p-JNK vs Tubulin ([6]; Time 6 h): 2.706 fold change and 2.4308 fold change and 2.197 fold change | fold change p-p38 vs Tubulin ([6]; Time 6 h): 1.573 fold change and 3.845 fold change and 3.365 fold change | fold change p-p53 vs Tubulin ([6]; Time 6 h): 0.4994 fold change and 0.627 fold change and 1.555 fold change | fold change p-ERK vs Tubulin ([6]; Time 24 h): 3.8691 fold change and 7.1 fold change and 5.002 fold change | fold change p-JNK vs Tubulin ([6]; Time 24 h): 3.2721 fold change and 2.291 fold change and 2.816 fold change | fold change p-p38 vs Tubulin ([6]; Time 24 h): 3.758 fold change and 3.606 fold change and 2.16 fold change | fold change p-p53 vs Tubulin ([6]; Time 24 h): 0.7787 fold change and 0.8882 fold change and 1.672 fold change | fold change BID full length vs Tubulin ([6]; time 1 h): 0.978 fold change and 1.383 fold change and 0.822 fold change | fold change BID full length vs Tubulin ([6]; time 3 h): 0.826 fold change and 0.919 fold change and 0.851 fold change | fold change MCL1 vs Tubulin ([6]; time 3 h): 0.354 fold change and 0.557 fold change and 0.657 fold change | fold change BID full length vs Tubulin ([6]; time 6 h): 0.842 fold change and 0.933 fold change and 0.854 fold change | fold change MCL1 vs Tubulin ([6]; time 24 h): 1.039 fold change and 1.002 fold change and 0.903 fold change | activation of p53 (p-p53 western blot) ([7]; PANC1, IC50, 1, 3, 6 and 24 h): did not activate p53 | phosphorylation of CHK1/2 (DDR pathway, western blot) ([7]; PANC1, IC50, 1, 3, 6 or 24 h): did not activate | fold change BAX vs Tubulin ([7]; PANC1, time 1 h, Fig. S3B): 1.558 fold change and 0.8186 fold change and 1.264 fold change | fold change BAX vs Tubulin ([7]; PANC1, time 3 h, Fig. S3B): 1.103 fold change and 1.1737 fold change and 1.2 fold change | fold change BAX vs Tubulin ([7]; PANC1, time 6 h, Fig. S3B): 1.097 fold change and 1.226 fold change and 1.154 fold change | fold change BAX vs Tubulin ([7]; PANC1, time 24 h, Fig. S3B): 1.153 fold change and 1.646 fold change and 1.378 fold change | fold change BID full length vs Tubulin ([7]; PANC1, time 24 h, Fig. S3B): 0.5478 fold change and 0.965 fold change and 0.596 fold change | fold change MCL1 vs Tubulin ([7]; PANC1, time 24 h, Fig. S3B): 1.638 fold change and 3.054 fold change and 2.481 fold change | fold change p-ERK vs Tubulin ([7]; Time 1 h): 5.052 fold change and 7.4391 fold change and 5.41 fold change | fold change p-JNK vs Tubulin ([7]; Time 1 h): 2.895 fold change and 2.7686 fold change and 4.719 fold change | fold change p-p38 vs Tubulin ([7]; Time 1 h): 2.229 fold change and 1.109 fold change and 1.075 fold change | fold change p-p53 vs Tubulin ([7]; Time 1 h): 0.74 fold change and 1.11 fold change and 0.95 fold change | fold change p-ERK vs Tubulin ([7]; Time 3 h): 4.573 fold change and 11.3646 fold change and 8.3 fold change | fold change p-JNK vs Tubulin ([7]; Time 3 h): 1.5726 fold change and 2.305 fold change and 1.813 fold change | fold change p-p38 vs Tubulin ([7]; Time 3 h): 2.01 fold change and 1.474 fold change and 1.299 fold change | fold change p-p53 vs Tubulin ([7]; Time 3 h): 0.37 fold change and 1.05 fold change and 0.6 fold change | fold change p-ERK vs Tubulin ([7]; Time 6 h): 3.1087 fold change and 13.4172 fold change and 7.72 fold change | fold change p-JNK vs Tubulin ([7]; Time 6 h): 2.264 fold change and 2.75 fold change and 2.02 fold change | fold change p-p38 vs Tubulin ([7]; Time 6 h): 1.737 fold change and 1.3292 fold change and 1.51 fold change | fold change p-p53 vs Tubulin ([7]; Time 6 h): 0.46 fold change and 1.28 fold change and 0.68 fold change | fold change p-ERK vs Tubulin ([7]; Time 24 h): 0.9081 fold change and 11.3435 fold change and 3.15 fold change | fold change p-JNK vs Tubulin ([7]; Time 24 h): 0.7671 fold change and 1.164 fold change and 1.094 fold change | fold change p-p38 vs Tubulin ([7]; Time 24 h): 1.276 fold change and 1.422 fold change and 1.33 fold change | fold change p-p53 vs Tubulin ([7]; Time 24 h): 0.81 fold change and 1.22 fold change and 0.52 fold change
